pKd: −log10 of the molar value.
How the values were obtained:
MAGE-A3111-125 peptide [1] = biological target: T1, MAGE-A3111-125 peptide (Homo sapiens, UniProt P43357); test: Peptide-magnetic bead binding assay with elution and PCR amplification (FIG. 1); conditions: peptide on streptavidin-coupled magnetic beads
Description: FIG. 1 is a photograph illustrating the PCR results of the binding affinity and specificity between Ap52 of Example 2 and specified peptides, in which peptide MAGE-A3111-125 (+), NY-ESO-1119-143 (N1), NY-ESO-1157-170 (N2), NY-ESO-187-111 (N3), or no peptide (−) were reacted with Ap52, followed by elution and PCR amplification; PB served as a control of oligonucleotide aptamer;
A total of ninety-four different sequences were obtained and further assayed individually for its binding affinity and specificity to MAGE-A3111-125. Plasmid DNA was first amplified by use of anchored PCR, as described above. The resulting ssDNA products were purified through 12% denaturing PAGE and incubated with the biotinylated peptide MAGE-A3111-125, which was pre-incubated with the streptavidin-coupled magnetic beads and thus formed a peptide-magnetic bead complex through the streptavidin-biotin interaction. The sequences that bound specifically to the peptide MAGE-A3111-125 were isolated by the magnet and subject to further purification, as the procedure described in library selection.
Thus, Ap52 is highly specific in terms of binding with MAGE-A3111-125 peptide.

MAGE-A3111-125 peptide [2] = biological target: T1, MAGE-A3111-125 peptide; test: Isothermal titration calorimetry (ITC) for dissociation constant (Kd) determination; type: binding
Protocol: Isothermal Titration Calorimetry (ITC) for Dissociation Constant (Kd) Determination
Thermodynamic profile of the interaction between DNA and peptide was measured with a MicroCal iTC200 (GE Healthcare Life Sciences) at 25° C. in washing buffer (0.45% glucose, 5 mM MgCl2, in Dulbecco's Phosphate-Buffered Saline). The unmodified MAGE-A3111-125 peptide (0.3 mM, 200 μl) was titrated with 18 successive injections of 2 μl aptamer (0.1 mM) at 150 s intervals. The data were analyzed using MicroCal Origin 7 and fit with a one-set-of sites binding model to obtain values of enthalpy change (AH) and association constant (Ka).
Isothermal titration calorimetry (ITC) is a technique used to measure the thermodynamic profile of the interactions between two molecules, and thus can be used to determine the respective binding affinities of Ap16 and Ap52 to MAGE-A3111-125 peptide. […] Therefore, both Ap52 and Ap16 are effective in targeting MAGE-A3111-125-peptide.

[3] = ITC at 25° C. in washing buffer, one-set-of sites binding model

| Substance | binding to MAGE-A3111-125 peptide (MAGE-A3111-125 peptide [1]) | pKd (MAGE-A3111-125 peptide [2]; [3]) | ΔH (enthalpy change) (MAGE-A3111-125 peptide [2]; [3]) [kcal/mol] | Kd values, in words (MAGE-A3111-125 peptide [2]; general statement on binding to the MAGE-A3 peptide) |
| --- | --- | --- | --- | --- |
| Ap16-control: 16-nucleotide region (SEQ ID NO: 7) from another oligonucleotide selected from SELEX, used as a negative control (ATCATTCGGATGTGTG; listed as DNA, chemistry not fully specified) | failed to bind |  |  |  |
| Ap16: oligonucleotide aptamer of 16 nucleotides AGCACTCAATATTCCC (SEQ ID NO: 1), central randomized region of Ap52 (listed as DNA, chemistry not given here) |  | 7.02 | -41 | nanomolar range |
